System: Female C57BL/6 mice
Experiment: Animal study: lymphocytes and red blood cells in blood enumerated by hematology analyzer 24 hours after oral gavage
Format: in vivo
Conditions: oral gavage 400 micromol/kg, 24 hours later, vs vehicle (PEG300)
Protocol: Female C57BL/6 mice 6-8 weeks old were treated by oral gavage with vehicle (PEG300) or compound 510 at 400 micromol/kg. 24 hours later, lymphocytes and red blood cells (RBC) in blood were enumerated by hematology analyzer (XT-2000i). The results are depicted in FIG. 1.

CC(C)C(=O)N(CCO)[C@H]1CCN(c2nc3cc(F)c(F)cc3nc2-c2cccc(OC(F)(F)F)c2)C1 [Compound 510, (S)—N-(1-(6,7-difluoro-3-(3-(trifluoromethoxy)-phenyl)quinoxalin-2-yl)pyrrolidin-3-yl)-N-(2-hydroxyethyl)isobutyramide]
number of lymphocytes in blood (FIG. 1A): substantially reduced | number of red blood cells (RBC) in blood (FIG. 1B): remained unchanged
